Results reported in publication PMC5578999, “Novel quinolone chalcones targeting colchicine-binding pocket kill multidrug-resistant cancer cells by inhibiting tubulin activity and MRP1 function” (Scientific Reports, 2017).

Legend:
Test in all cases: NCI-60 SRB screen
Type in all cases: cell-based
BT-549 = test system: BT-549
Description: (§1) Supplementary Figure l egend
(§2) 10μ M of CTR-20 was used to examine the drug’s efficac y against the NC I-60 cancer cell li nes including: six leukemia cell lines, nine non- small cell lung cancer cell lines, seven color ect al cancer cell lines, six CNS cancer cell lines, nine melanoma cell lines, seven ovari an can cer cell lines, seven ren al can cer cell lines, two prostate cancer cell lines and six breast cancer cell lines. The scr eenin g was car r ied out b y the US National Cancer Institute (NC I) us i n g a sulforhodamine B (SRB) colorimetric assay. […]
(§3) out by the NC I using five different doses of CTR -20.

EKVX = test system: EKVX
Description: as §1, §2, §3

HOP-62 = test system: HOP-62
Description: as §1, §2, §3

K-562 = test system: K-562
Description: as §1, §2, §3

M14 = test system: M14
Description: as §1, §2, §3

MDA-MB-231/ATCC = test system: MDA-MB-231/ATCC
Description: as §1, §2, §3

NCI-H522 = test system: NCI-H522
Description: as §1, §2, §3

OVCAR-5 = test system: OVCAR-5
Description: as §1, §2, §3

SF-295 = test system: SF-295
Description: as §1, §2, §3

SK-MEL-2 = test system: SK-MEL-2
Description: as §1, §2, §3

SK-OV-3 = test system: SK-OV-3
Description: as §1, §2, §3

SN12C = test system: SN12C
Description: as §1, §2, §3

[1] = Homo sapiens, read-out: LC50 (the source's name)

`COc1ccc2[nH]c(=O)c(/C=C/C(=O)c3ccccc3OC)cc2c1` [CTR-20, (E)-6-Methoxy-3-(3-(2-methoxyphenyl)-3-oxoprop-1-enyl) quinolin-2(1H)-one] was tested, and the Log10GI50 (BT-549) was -6.41 Molar, the Log10LC50 (BT-549) was -4.72 Molar and the Log10TGI (BT-549) was -5.62 Molar. For the same molecule, the TGI (BT-549) was 2.42E-6 Molar, the “Growth Percent” value (BT-549; 1.00E-5 Molar) was 18.91% and the GI50 (BT-549; Homo sapiens) was 387 nM. For the same molecule, the CC50 (BT-549; [1]) was 19200 nM, the “Percent Growth” value (BT-549; Log10 Concentration -4.0) was -97% and the “Percent Growth” value (BT-549; Log10 Concentration -5.0) was -32%. The “Percent Growth” value (BT-549; Log10 Concentration -6.0) was 20%, the “Percent Growth” value (BT-549; Log10 Concentration -7.0) was 93% and the “Percent Growth” value (BT-549; Log10 Concentration -8.0) was 91%. It also gave a Log10GI50 (EKVX) of -5.69 Molar, a Log10LC50 (EKVX) of -4.25 Molar and a Log10TGI (EKVX) of -4.98 Molar. The TGI (EKVX) was 1.05E-5 Molar, the “Growth Percent” value (EKVX; 1.00E-5 Molar) was 37.76% and the GI50 (EKVX; Homo sapiens) was 2050 nM. For the same molecule, the CC50 (EKVX; [1]) was 55800 nM, the “Percent Growth” value (EKVX; Log10 Concentration -4.0) was -67% and the “Percent Growth” value (EKVX; Log10 Concentration -5.0) was 1%. The “Percent Growth” value (EKVX; Log10 Concentration -6.0) was 72%, the “Percent Growth” value (EKVX; Log10 Concentration -7.0) was 91% and the “Percent Growth” value (EKVX; Log10 Concentration -8.0) was 86%. The Log10GI50 (HOP-62) was -5.91 Molar, the Log10LC50 (HOP-62) was -4.63 Molar and the Log10TGI (HOP-62) was -5.27 Molar. The TGI (HOP-62) was 5.32E-6 Molar, the “Growth Percent” value (HOP-62; 1.00E-5 Molar) was 8.67% and the GI50 (HOP-62; Homo sapiens) was 1240 nM. For the same molecule, the LC50 (HOP-62; Homo sapiens) was 23700 nM, the “Percent Growth” value (HOP-62; Log10 Concentration -4.0) was -97% and the “Percent Growth” value (HOP-62; Log10 Concentration -5.0) was -22%. The “Percent Growth” value (HOP-62; Log10 Concentration -6.0) was 58%, the “Percent Growth” value (HOP-62; Log10 Concentration -7.0) was 95% and the “Percent Growth” value (HOP-62; Log10 Concentration -8.0) was 89%. For the same molecule, the Log10GI50 (K-562) was -6.79 Molar, the Log10LC50 (K-562) was greater than -4.00 Molar and the Log10TGI (K-562) was greater than -4.00 Molar. For the same molecule, the TGI (K-562) was greater than 1.00E-4 Molar, the “Growth Percent” value (K-562; 1.00E-5 Molar) was 4.24% and the GI50 (K-562; Homo sapiens, K562) was 162 nM. For the same molecule, the CC50 (K-562; Homo sapiens, K562, read-out: LC50 (the source's name)) was greater than 100000 nM, the “Percent Growth” value (K-562; Log10 Concentration -4.0) was 4% and the “Percent Growth” value (K-562; Log10 Concentration -5.0) was 6%. For the same molecule, the “Percent Growth” value (K-562; Log10 Concentration -6.0) was 11%, the “Percent Growth” value (K-562; Log10 Concentration -7.0) was 61% and the “Percent Growth” value (K-562; Log10 Concentration -8.0) was 101%. For the same molecule, the Log10GI50 (M14) was -6.56 Molar, the Log10LC50 (M14) was -4.62 Molar and the Log10TGI (M14) was -5.85 Molar. For the same molecule, the TGI (M14) was 1.41E-6 Molar, the “Growth Percent” value (M14; 1.00E-5 Molar) was 13.82% and the GI50 (M14; Homo sapiens) was 278 nM. The CC50 (M14; [1]) was 24000 nM, the “Percent Growth” value (M14; Log10 Concentration -4.0) was -93% and the “Percent Growth” value (M14; Log10 Concentration -5.0) was -23%. The “Percent Growth” value (M14; Log10 Concentration -6.0) was 4%, the “Percent Growth” value (M14; Log10 Concentration -7.0) was 87% and the “Percent Growth” value (M14; Log10 Concentration -8.0) was 92%. It also gave a Log10GI50 (MDA-MB-231/ATCC) of -5.84 Molar, a Log10LC50 (MDA-MB-231/ATCC) of -4.40 Molar and a Log10TGI (MDA-MB-231/ATCC) of -4.96 Molar. The TGI (MDA-MB-231/ATCC) was 1.10E-5 Molar, the “Growth Percent” value (MDA-MB-231/ATCC; 1.00E-5 Molar) was 0.32% and the GI50 (MDA-MB-231/ATCC; Homo sapiens) was 1440 nM. For the same molecule, the CC50 (MDA-MB-231/ATCC; [1]) was 39600 nM, the “Percent Growth” value (MDA-MB-231/ATCC; Log10 Concentration -4.0) was -86% and the “Percent Growth” value (MDA-MB-231/ATCC; Log10 Concentration -5.0) was 4%. For the same molecule, the “Percent Growth” value (MDA-MB-231/ATCC; Log10 Concentration -6.0) was 59%, the “Percent Growth” value (MDA-MB-231/ATCC; Log10 Concentration -7.0) was 102% and the “Percent Growth” value (MDA-MB-231/ATCC; Log10 Concentration -8.0) was 102%. It also gave a Log10GI50 (NCI-H522) of -6.45 Molar, a Log10LC50 (NCI-H522) of -4.89 Molar and a Log10TGI (NCI-H522) of -5.69 Molar. For the same molecule, the TGI (NCI-H522) was 2.06E-6 Molar, the “Growth Percent” value (NCI-H522; 1.00E-5 Molar) was 3.93% and the GI50 (NCI-H522; Homo sapiens) was 352 nM. The LC50 (concentration causing 50% net cell kill) (NCI-H522; Homo sapiens) was 12900 nM, the “Percent Growth” value (NCI-H522; Log10 Concentration -4.0) was -88% and the “Percent Growth” value (NCI-H522; Log10 Concentration -5.0) was -45%. The “Percent Growth” value (NCI-H522; Log10 Concentration -6.0) was 21%, the “Percent Growth” value (NCI-H522; Log10 Concentration -7.0) was 85% and the “Percent Growth” value (NCI-H522; Log10 Concentration -8.0) was 87%. It also gave a Log10GI50 (OVCAR-5) of -5.71 Molar, a Log10LC50 (OVCAR-5) of -4.33 Molar and a Log10TGI (OVCAR-5) of -4.98 Molar. The TGI (OVCAR-5) was 1.04E-5 Molar, the “Growth Percent” value (OVCAR-5; 1.00E-5 Molar) was 12.07% and the GI50 (OVCAR-5; Homo sapiens) was 1970 nM. For the same molecule, the CC50 (OVCAR-5; [1]) was 46600 nM, the “Percent Growth” value (OVCAR-5; Log10 Concentration -4.0) was -75% and the “Percent Growth” value (OVCAR-5; Log10 Concentration -5.0) was 1%. The “Percent Growth” value (OVCAR-5; Log10 Concentration -6.0) was 70%, the “Percent Growth” value (OVCAR-5; Log10 Concentration -7.0) was 98% and the “Percent Growth” value (OVCAR-5; Log10 Concentration -8.0) was 93%. The Log10GI50 (SF-295) was -6.28 Molar, the Log10LC50 (SF-295) was -4.42 Molar and the Log10TGI (SF-295) was -4.92 Molar. For the same molecule, the TGI (SF-295) was 1.21E-5 Molar, the “Growth Percent” value (SF-295; 1.00E-5 Molar) was 8.29% and the GI50 (SF-295; Homo sapiens) was 529 nM. The CC50 (SF-295; [1]) was 37600 nM, the “Percent Growth” value (SF-295; Log10 Concentration -4.0) was -93% and the “Percent Growth” value (SF-295; Log10 Concentration -5.0) was 8%. The “Percent Growth” value (SF-295; Log10 Concentration -6.0) was 33%, the “Percent Growth” value (SF-295; Log10 Concentration -7.0) was 93% and the “Percent Growth” value (SF-295; Log10 Concentration -8.0) was 89%. For the same molecule, the Log10GI50 (SK-MEL-2) was -6.16 Molar, the Log10LC50 (SK-MEL-2) was -4.54 Molar and the Log10TGI (SK-MEL-2) was -5.36 Molar. The TGI (SK-MEL-2) was 4.39E-6 Molar, the “Growth Percent” value (SK-MEL-2; 1.00E-5 Molar) was -2.52% and the GI50 (SK-MEL-2; Homo sapiens) was 694 nM. The CC50 (SK-MEL-2; [1]) was 29200 nM, the “Percent Growth” value (SK-MEL-2; Log10 Concentration -4.0) was -81% and the “Percent Growth” value (SK-MEL-2; Log10 Concentration -5.0) was -23%. For the same molecule, the “Percent Growth” value (SK-MEL-2; Log10 Concentration -6.0) was 41%, the “Percent Growth” value (SK-MEL-2; Log10 Concentration -7.0) was 99% and the “Percent Growth” value (SK-MEL-2; Log10 Concentration -8.0) was 95%. For the same molecule, the Log10GI50 (SK-OV-3) was -5.65 Molar, the Log10LC50 (SK-OV-3) was -4.44 Molar and the Log10TGI (SK-OV-3) was -4.89 Molar. The TGI (SK-OV-3) was 1.28E-5 Molar, the “Growth Percent” value (SK-OV-3; 1.00E-5 Molar) was 6.12% and the GI50 (SK-OV-3; Homo sapiens) was 2230 nM. For the same molecule, the CC50 (SK-OV-3; [1]) was 36200 nM, the “Percent Growth” value (SK-OV-3; Log10 Concentration -4.0) was -99% and the “Percent Growth” value (SK-OV-3; Log10 Concentration -5.0) was 12%. The “Percent Growth” value (SK-OV-3; Log10 Concentration -6.0) was 70%, the “Percent Growth” value (SK-OV-3; Log10 Concentration -7.0) was 99% and the “Percent Growth” value (SK-OV-3; Log10 Concentration -8.0) was 87%. The Log10GI50 (SN12C) was -6.27 Molar, the Log10LC50 (SN12C) was -4.44 Molar and the Log10TGI (SN12C) was -4.99 Molar. For the same molecule, the TGI (SN12C) was 1.03E-5 Molar, the “Growth Percent” value (SN12C; 1.00E-5 Molar) was 8.57% and the GI50 (SN12C; Homo sapiens) was 537 nM. The CC50 (SN12C; [1]) was 36700 nM, the “Percent Growth” value (SN12C; Log10 Concentration -4.0) was -89% and the “Percent Growth” value (SN12C; Log10 Concentration -5.0) was 1%. The “Percent Growth” value (SN12C; Log10 Concentration -6.0) was 32%, the “Percent Growth” value (SN12C; Log10 Concentration -7.0) was 100% and the “Percent Growth” value (SN12C; Log10 Concentration -8.0) was 102%.
